Measured values taken from ChEMBL document CHEMBL4308911, “Elucidating the mode of action for thiophene-based organic D-π-A sensitizers for use in photodynamic therapy” (Bioorg Med Chem, 2019).
The source made the active and inactive calls. No cut-off for these calls is given here.

Experiments:
[1] = Drug uptake lysosome of in human HeLa cells at 10 uM after 1 hr by Lyso tracker red-based confocal microscopic analysis; type: ADME, subcellular
[2] = Drug uptake in human HeLa cells at 20 uM at 37 degC after 1 hr by fluorescence assay; type: ADME, cell-based
[3] = Drug uptake in human HeLa cells at 20 uM at 4 degC after 1 hr by fluorescence assay; type: ADME, cell-based
[4] = Drug uptake in human HeLa cells at 20 uM after 1 hr in presence of lipid raft inhibitor methyl-beta-cyclodextrin by fluorescence assay; type: ADME, cell-based
[5] = system: HeLa; experiment: Phototoxicity against human HeLa cells assessed as reduction in cell viability preincubated for 1 hr followed by LED light irradiation at 8 +/- 0.5 mW/cm2 for 15 mins and measured after 48 hrs by MTT assay; type: functional, cell-based; conditions: light or radiation study
[6] = Drug uptake mitochondria of in human HeLa cells at 10 uM after 1 hr by Mito tracker red-based confocal microscopic analysis; type: ADME
[7] = Dark toxicity against human HeLa cells assessed as reduction in cell viability after 48 hrs by MTT assay; type: cell-based
[8] = Drug uptake in human HeLa cells at 20 uM after 1 hr in presence of sucrose by fluorescence assay; type: ADME, cell-based
[9] = Aggregation property of the compound in potassium phosphate buffer assessed as particle size at 10 uM by DLS method; type: physicochemical
[10] = Drug uptake in human HeLa cells at 20 uM by fluorescence assay; type: ADME, cell-based; conditions: TDE = time-dependent effect
[11] = Induction of singlet oxygen production irradiated with 425 to 479 nm Nd:YAG laser light measured after 100 nanoseconds post irradiation; type: functional

Compound	Drug uptake [1]	Drug uptake [2]	Drug uptake [3]	Drug uptake [4]	Drug uptake [6]	Drug uptake [8]	Activity [9]	Drug uptake [10]	IC50 [5]	IC50 at 48 h [7]	Activity [11]
N#C/C(=C\c1ccc(-c2ccc(-c3ccc(N(c4ccccc4)c4ccccc4)cc3)s2)s1)C(N)=O	Active	Active	Not Active	Active	Active	Not Active	1175 nm	–	8.8 µM	63.1 µM	–
CC(C)(C)OC(=O)/C(C#N)=C/c1ccc(-c2ccc(-c3ccc(N(c4ccccc4)c4ccccc4)cc3)s2)s1	Not Active	–	–	–	Not Active	–	Not Active	–	> 100 µM	> 100 µM	–
O=Cc1ccc(-c2ccc(-c3ccc(N(c4ccccc4)c4ccccc4)cc3)s2)s1	Not Active	–	–	–	Not Active	–	Not Active	–	9.5 µM	88.9 µM	–

More lines, main results first:

Drug uptake [1]	Drug uptake [2]	Drug uptake [3]	Drug uptake [4]	Drug uptake [6]	Drug uptake [8]	Activity [9]	Drug uptake [10]	Compound	IC50 [5]	IC50 at 48 h [7]	Activity [11]
Not Active	–	–	–	Not Active	–	Not Active	–	COC(=O)/C(C#N)=C/c1ccc(-c2ccc(-c3ccc(N(c4ccccc4)c4ccccc4)cc3)s2)s1	> 100 µM	> 100 µM	–
Active	Active	Not Active	Not Active	Active	Not Active	175 nm	Tde	N#C/C(=C\c1ccc(-c2ccc(-c3ccc(N(c4ccccc4)c4ccccc4)cc3)s2)s1)C(=O)O	0.21 µM	21.9 µM	Active
